In PubChem BioAssay (NCI):
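How tested: cells in 96-well plates exposed to compound for 48 hours at five concentrations. GI50: concentration for 50% inhibition of growth. TGI: concentration producing complete growth inhibition.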

What was measured:
Test in all cases: NCI tumour cell line growth inhibition, 48 h
NCI-H23 lung = test system: NCI-H23 lung
EKVX NSCLC = test system: EKVX NSCLC
NCI-H522 lung = test system: NCI-H522 lung
SNB-75 CNS = test system: SNB-75 CNS
COLO 205 colon = test system: COLO 205 colon
NCI-H460 lung = test system: NCI-H460 lung
HCC-2998 colon = test system: HCC-2998 colon
HS 578T breast = test system: HS 578T breast
U251 CNS = test system: U251 CNS
KM12 colon = test system: KM12 colon

Row | Structure (SMILES) | GI50 (NCI-H23 lung) [µM] | TGI (NCI-H23 lung) [µM] | GI50 (EKVX NSCLC) [µM] | TGI (EKVX NSCLC) [µM] | GI50 (NCI-H522 lung) [µM] | TGI (NCI-H522 lung) [µM] | GI50 (SNB-75 CNS) [µM] | TGI (SNB-75 CNS) [µM] | GI50 (COLO 205 colon) [µM] | TGI (COLO 205 colon) [µM] | GI50 (NCI-H460 lung) [µM] | TGI (NCI-H460 lung) [µM] | GI50 (HCC-2998 colon) [µM] | TGI (HCC-2998 colon) [µM] | GI50 (HS 578T breast) [µM] | TGI (HS 578T breast) [µM] | GI50 (U251 CNS) [µM] | TGI (U251 CNS) [µM] | GI50 (KM12 colon) [µM] | TGI (KM12 colon) [µM]
1 | Brc1ccc2[nH]cc(-c3nc(-c4c[nH]c5ncccc45)cs3)c2c1 | 3.55 | 18.7 | 2.13 | 18.6 | 3.53 | 10.8 | 2.08 | 13.4 | 1.13 | 5.77 | 3.12 | 10.9 | 3.59 | 15.7 | 10.7 | > 100 | 3.37 | 12.8 | 2.92 | 10.4
2 | CCC(c1ccc(OC)cc1)C(CC)c1ccc(O)c(CN2CCN(C)CC2)c1 (stereo not given) | 6.37 | 20.6 | 5.37 | 19.2 | 4.74 | 17 | 10 | 23 | 1.73 | 3.42 | 3.04 | 8.2 | 2.15 | 4.62 | 3.08 | 9.56 | 2.73 | 12.2 | 3.68 | 12
3 | COc1ccc(C(c2ccc(OCCN(C)C)cc2)c2cc3ccccc3c3ccccc23)cc1 (stereo not given) | 1.83 | 3.8 | 1.59 | 3.3 | 1.55 | 2.98 | 1.36 | 2.74 | 1.77 | 3.47 | 1.79 | 3.29 | 1.8 | 3.34 | 1.66 | 3.62 | 1.57 | 2.92 | 1.8 | 3.39
4 | COc1cccc(-c2nn(-c3ccccc3)cc2-c2ccnc(NCCNC(=O)Nc3cccc(C(F)(F)F)c3)c2)c1 | 1.86 | 4.15 | 2 | 6.65 | 1.24 | 3.19 | 1.62 | 12.5 | 1.88 | 3.78 | 2 | 3.85 | 1.72 | 3.26 | 1.99 | 5.2 | 2.28 | 5.26 | 2.08 | 4.54
5 | Cc1ccc(-c2c3c(nn2-c2ccc(S(N)(=O)=O)cc2)-c2ccccc2C3)cc1 | 22.3 | 45.2 | 19.5 | 51.7 | 11.5 | 27.6 | 17.5 | 33.8 | 23 | 94.9 | 19.1 | 43.7 | 8.54 | 25.8 | 13.5 | 36.2 | 19 | 34.7 | 15.5 | 43.6
6 | COc1ccc2c(C3(c4cn(C)c5cc(OC)ccc45)C(=O)Nc4ccc(Cl)cc43)cn(C)c2c1 | 3.99 | > 100 | 2.6 | > 100 | 3.38 | 12.7 | 2.1 | > 100 | 1.95 | 4.73 | 3.29 | 11.7 | 6.35 | > 100 | 3.5 | 87.9 | 3.81 | > 100 | 3.82 | 21.1
7 | COc1cc(-c2cc(-c3ccc(Nc4ccnc5cc(Cl)ccc45)cc3)nc(N3CCOCC3)n2)cc(OC)c1OC | 2.2 | 6.22 | 2.62 | 9.73 | 2.03 | 5.03 | 1.65 | 3.44 | 2.79 | 9.36 | 1.87 | 3.89 | 3.64 | > 100 | 2.25 | 5.35 | 1.62 | 3.12 |  | 
8 | N[C@@H]1C(=O)N2C(C(=O)OC(c3ccccc3)c3ccccc3)=C(CCl)CS[C@H]12 | 95.6 | > 100 | 60.1 | > 100 | 31 | > 84.7 | 47.7 | > 100 | 40.3 | > 100 | 34 | > 100 | 43 | > 100 | 46.8 | > 100 | 29.2 | > 78.9 | 38.1 | > 100
9 | COc1ccc2c(c1)CC[C@@H]1[C@@H]2CC[C@]2(C)[C@@H](NC(=O)/C=C/c3ccc(O)c(O)c3)CC[C@@H]12 | 3.51 | 12.6 | 9.98 | 24.5 | 1.68 | 5.73 | 21.9 | > 100 | 14 | 46.8 | 2.7 | 9.93 | 2.05 | 4.19 | 18.5 | 58.4 | 2.88 | 11.2 | 2.28 | 5.88
10 | O=C1C2=C(c3ccccc31)C(c1ccccc1)N1C(=O)CSC1=N2 (stereo not given) |  | > 100 |  | > 100 |  | > 79.8 |  | 67.7 |  | > 100 |  | > 100 |  | > 100 |  | 82.2 |  | > 100 |  | > 100
11 | Oc1ccc(O)c(-c2cc(-c3ccc(Cl)cc3)nn2-c2ccccc2)c1 | 2.48 | 9.24 | 23.9 | 51.1 | 2.4 | 5.44 |  |  |  |  | 3.77 | > 100 | 2.58 | 4.98 | 3.43 | 29.8 |  |  | 4.14 | 18.4
12 | COc1ccccc1C1=C(Nc2ccccc2)C(=O)NC1=O |  |  | > 25 | > 25 | > 25 | > 25 | > 18.1 | > 25 | > 18.9 | > 25 | > 25 | > 25 | > 25 | > 25 | 6.25 | > 25 | > 25 | > 25 | > 23.8 | > 25
13 | COc1cc2c(cc1OC)C(Sc1ccc(SC)cc1)c1c(nc(N)c(C#N)c1N)O2 (stereo not given) | 1.78 | 3.55 | 1.78 | 3.32 | 1.64 | 3.03 | 1.54 | 3.16 | 1.71 | 3.41 | 2.08 | 4.49 | 1.8 | 3.28 | 2.01 | 4.52 | 1.37 | 2.66 | 1.81 | 3.46
